Measured values published in US20240368154A1 (GENOSCO Inc., priority 2023, published 2024).
pIC50: −log10 of the molar value.

What was measured:
[1] = target: T1, Recombinant ROCK2 (amino acids 5-554) (Homo sapiens, UniProt O75116); assay: ROCK inhibition assay, LANCE Ultra TR-FRET kinase assay; type: biochemical; settings: at Km of ATP (table title); method: 1 mM ATP, 50 nM ULight-CREBtide substrate, 1 hour, room temperature
T1 construct: ROCK2 (amino acids 5-554)
Procedure: (§1) Kinase IC50 was determined through an in vitro assay based on LANCE Ultra TR-FRET (Time-Resolved Fluorescence Resonance Energy Transfer) homogeneous technologies method (Perkin Elmer). Recombinant ROCK1 (amino acids 1-477) and ROCK2 (amino acids 5-554) proteins were purchased from Carna Biosciences and SignalChem. Compound activities were measured by Envision and IC50s were calculated. The assays were performed in white LUMITRAC™ 200 96 well half-area microplates from Greiner Bio-One. The kinase reaction buffer consisted of 50 mM HEPES pH 7.5, 1 mM EGTA, 10 mM MgCl2, 2 mM DTT and 0.01% Tween-20. Kinases were incubated with 50 nM (ULight-CREBtide) substrate in the presence of 1 mM (ROCK1) or 1 mM (ROCK2) of ATP. The kinase reaction was carried out for 1 hour before addition of a stopping buffer to a final of 10 mM EDTA and 0.6 nM of LANCE Ultra Europium anti-phospho-CREB (Ser133) antibody (PerkinElmer TRF0200) in LANCE detection buffer. All assay incubations were performed at room temperature, and the microplates were sealed with polyester film during that time. The reaction was incubated for 1 hour, and the signal was read in Envision in TR-FRET mode (excitation at 320 nm and emission at 615/665 nm).
(§2) As used herein, a way to describe potency of inhibitory activity (nM) is a value of inhibitory activity at 50% (IC50).

[2] = target: T2, Recombinant ROCK1 (amino acids 1-477) (Homo sapiens, UniProt Q13464); assay: as above; type: biochemical; settings: at Km of ATP (table title); method: 1 mM ATP, 50 nM ULight-CREBtide substrate, 1 hour, room temperature
T2 construct: Recombinant ROCK1 (amino acids 1-477)
Procedure: as §1, §2

T1 sequence (O75116 5-554): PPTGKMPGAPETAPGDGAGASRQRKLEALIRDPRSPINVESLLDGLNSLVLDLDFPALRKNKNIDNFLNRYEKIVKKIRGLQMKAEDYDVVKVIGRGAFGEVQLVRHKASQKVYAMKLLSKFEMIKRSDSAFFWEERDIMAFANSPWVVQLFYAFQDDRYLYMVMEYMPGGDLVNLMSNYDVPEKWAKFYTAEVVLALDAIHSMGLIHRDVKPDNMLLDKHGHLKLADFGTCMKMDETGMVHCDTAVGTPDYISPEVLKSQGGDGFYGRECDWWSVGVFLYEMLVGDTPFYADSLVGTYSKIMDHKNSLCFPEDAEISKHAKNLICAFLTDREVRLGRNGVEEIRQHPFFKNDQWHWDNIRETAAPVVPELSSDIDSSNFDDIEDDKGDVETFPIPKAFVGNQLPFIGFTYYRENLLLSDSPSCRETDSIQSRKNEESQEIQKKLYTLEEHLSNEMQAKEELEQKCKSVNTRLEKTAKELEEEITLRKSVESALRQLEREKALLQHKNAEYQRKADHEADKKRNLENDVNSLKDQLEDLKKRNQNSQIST
T2 sequence (Q13464 1-477): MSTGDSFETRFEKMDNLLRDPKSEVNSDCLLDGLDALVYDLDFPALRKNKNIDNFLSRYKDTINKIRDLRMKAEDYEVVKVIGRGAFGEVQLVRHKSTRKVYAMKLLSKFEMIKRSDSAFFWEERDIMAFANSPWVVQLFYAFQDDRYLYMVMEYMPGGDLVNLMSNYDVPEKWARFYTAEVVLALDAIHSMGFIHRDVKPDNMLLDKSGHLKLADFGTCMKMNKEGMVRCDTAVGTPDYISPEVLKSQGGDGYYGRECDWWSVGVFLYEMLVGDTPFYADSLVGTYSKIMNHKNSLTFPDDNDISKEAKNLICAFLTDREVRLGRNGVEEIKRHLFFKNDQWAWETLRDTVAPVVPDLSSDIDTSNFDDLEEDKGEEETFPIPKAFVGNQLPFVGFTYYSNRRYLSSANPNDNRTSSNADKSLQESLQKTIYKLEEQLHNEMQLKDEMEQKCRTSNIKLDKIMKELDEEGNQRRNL

Structure (SMILES) | pIC50 [1] | pIC50 [2]
COc1n[nH]cc1-c1ccc2c(C(=O)C3COc4ccc(Cl)cc4C3)cn(CCO)c2c1 (racemic) [Compound 2-17] | 7.30 to 7.96 | 7.30 to 7.96
COc1n[nH]cc1-c1ccc2c(C(=O)C3COc4ccc(F)cc4C3)cn(CCO)c2c1 (racemic) [Compound 2-20] | 7.30 to 7.96 | 7.30 to 7.96
COc1n[nH]cc1-c1ccc2c(C(=O)[C@@H]3COc4ccc(Cl)cc4C3)cn(CCO)c2c1 (single isomer, unassigned) [Compound 2-18] | > 8.00 | 7.30 to 7.96
COc1n[nH]cc1-c1ccc2c(C(=O)[C@H]3COc4ccc(Cl)cc4C3)cn(CCO)c2c1 (single isomer, unassigned) [Compound 2-19] | 6.30 to 7.29 | < 6.30
COc1n[nH]cc1-c1ccc2c(C(=O)[C@@H]3COc4ccc(F)cc4C3)cn(CCO)c2c1 (single isomer, unassigned) [Compound 2-21] | > 8.00 | 7.30 to 7.96
COc1n[nH]cc1-c1ccc2c(C(=O)[C@H]3COc4ccc(F)cc4C3)cn(CCO)c2c1 (single isomer, unassigned) [Compound 2-22] | 6.30 to 7.29 | < 6.30
O=C(c1cn(CCO)c2nc(-c3c[nH]nc3Cl)ccc12)C1COc2ccc(F)cc2C1 (centres unmarked) [Compound 1-3] | > 8.00 | 7.30 to 7.96
O=C(c1cn(CCO)c2nc(-c3c[nH]nc3Cl)ccc12)C1COc2ccc(Cl)cc2C1 (centres unmarked) [Compound 1-4] | > 8.00 | 7.30 to 7.96
O=C(c1cn(CCO)c2cc(-c3c[nH]nc3Cl)cnc12)C1COc2ccc(Cl)cc2C1 (centres unmarked) [Compound 1-5] | 7.30 to 7.96 | 6.30 to 7.29
C[C@H](O)Cn1cc(C(=O)C2COc3ccc(Cl)cc3C2)c2cnc(-c3cn[nH]c3Cl)cc21 (some centres unmarked) [Compound 1-7] | > 8.00 | 7.30 to 7.96
C[C@@H](O)Cn1cc(C(=O)C2COc3ccc(Cl)cc3C2)c2cnc(-c3c[nH]nc3Cl)cc21 (some centres unmarked) [Compound 1-8] | > 8.00 | 7.30 to 7.96
C[C@@H](O)Cn1cc(C(=O)[C@@H]2COc3ccc(Cl)cc3C2)c2cnc(-c3cn[nH]c3Cl)cc21 [Compound 1-10] | > 8.00 | 7.30 to 7.96
O=C(c1cn(CCO)c2cc(-c3c[nH]nc3Cl)ncc12)C1COc2ccc(F)cc2C1 (centres unmarked) [Compound 1-13] | > 8.00 | 7.30 to 7.96
Cc1n[nH]cc1-c1ccc2c(C(=O)C3COc4ccc(F)cc4C3)cn(CCO)c2n1 (centres unmarked) [Compound 1-15] | > 8.00 | > 8.00
CC(C)(O)Cn1cc(C(=O)C2COc3ccc(Cl)cc3C2)c2cnc(-c3c[nH]nc3Cl)cc21 (centres unmarked) [Compound 1-16] | > 8.00 | 7.30 to 7.96
CC(C)(O)Cn1cc(C(=O)[C@@H]2COc3ccc(Cl)cc3C2)c2cnc(-c3c[nH]nc3Cl)cc21 [Compound 1-17] | > 8.00 | > 8.00
C[C@H](O)Cn1cc(C(=O)C2COc3ccc(F)cc3C2)c2cnc(-c3c[nH]nc3Cl)cc21 (some centres unmarked) [Compound 1-20] | > 8.00 | > 8.00
COc1ccc2c(c1)CC(C(=O)c1cn(CCO)c3nc(-c4c[nH]nc4Cl)ccc13)CO2 (centres unmarked) [Compound 1-22] | > 8.00 | > 8.00

Structure (SMILES) | pIC50 [1] | pIC50 [2]
COc1ccc2c(c1)CC(C(=O)c1cn(CCO)c3cc(-c4c[nH]nc4Cl)ncc13)CO2 (centres unmarked) [Compound 1-23] | > 8.00 | > 8.00
COc1ccc2c(c1)CC(C(=O)c1cn(CCO)c3cc(-c4cn[nH]c4F)ncc13)CO2 (centres unmarked) [Compound 1-24] | > 8.00 | > 8.00
COc1ccc2c(c1)CC(C(=O)c1cn(C[C@H](C)O)c3cc(-c4cn[nH]c4F)ncc13)CO2 (some centres unmarked) [Compound 1-25] | > 8.00 | 7.30 to 7.96
COc1ccc2c(c1)C[C@H](C(=O)c1cn(C[C@H](C)O)c3cc(-c4cn[nH]c4F)ncc13)CO2 [Compound 1-26] | > 8.00 | > 8.00
COc1ccc2c(c1)CC(C(=O)c1cn(C[C@H](C)O)c3cc(-c4cn[nH]c4Cl)ncc13)CO2 (some centres unmarked) [Compound 1-27] | > 8.00 | > 8.00
COc1ccc2c(c1)CC(C(=O)c1cn(CC(C)(C)O)c3cc(-c4cn[nH]c4Cl)ncc13)CO2 (centres unmarked) [Compound 1-29] | > 8.00 | > 8.00
CC(C)(O)Cn1cc(C(=O)[C@@H]2COc3ccc(Cl)cc3C2)c2cnc(-c3cn[nH]c3F)cc21 [Compound 1-31] | > 8.00 | > 8.00
COc1[nH]ncc1-c1cc2c(cn1)c(C(=O)[C@H]1COc3ccc(Cl)cc3C1)cn2C[C@H](C)O [Compound 1-34] | 7.30 to 7.96 | 6.30 to 7.29
CC[C@H](O)Cn1cc(C(=O)C2COc3ccc(Cl)cc3C2)c2cnc(-c3cn[nH]c3Cl)cc21 (some centres unmarked) [Compound 1-35] | 7.30 to 7.96 | 6.30 to 7.29
CC[C@H](O)Cn1cc(C(=O)C2COc3ccc(Cl)cc3C2)c2cnc(-c3cn[nH]c3F)cc21 (some centres unmarked) [Compound 1-36] | 7.30 to 7.96 | 6.30 to 7.29
O=C(c1cn(CC2CC(O)C2)c2cc(-c3cn[nH]c3Cl)ncc12)C1COc2ccc(Cl)cc2C1 (centres unmarked) [Compound 1-38] | > 8.00 | 7.30 to 7.96
CC(O)Cn1cc(C(=O)C2COc3ccc(Cl)cc3C2)c2ccc(-c3c[nH]nc3Cl)cc21 (centres unmarked) [Compound 1-39] | 7.30 to 7.96 | 7.30 to 7.96
CC(O)Cn1cc(C(=O)[C@@H]2COc3ccc(Cl)cc3C2)c2ccc(-c3c[nH]nc3Cl)cc21 (some centres unmarked) [Compound 1-40] | > 8.00 | 7.30 to 7.96
COc1n[nH]cc1-c1ccc2c(C(=O)[C@@H]3COc4ccc(Cl)cc4C3)cn(CC(C)O)c2c1 (some centres unmarked) [Compound 1-42] | > 8.00 | 7.30 to 7.96
COc1n[nH]cc1-c1ccc2c(C(=O)C3COc4ccc(Cl)cc4C3)cn(C[C@H](C)O)c2c1 (some centres unmarked) [Compound 1-43] | 7.30 to 7.96 | 6.30 to 7.29
COc1n[nH]cc1-c1ccc2c(C(=O)C3COc4ccc(Cl)cc4C3)cn(C[C@@H](C)O)c2c1 (some centres unmarked) [Compound 1-44] | 7.30 to 7.96 | 7.30 to 7.96
C[C@H](O)Cn1cc(C(=O)C2COc3ccc(Cl)cc3C2)c2cnc(-c3cn[nH]c3Cl)nc21 (some centres unmarked) [Compound 1-45] | > 8.00 | 7.30 to 7.96
C[C@H](O)Cn1cc(C(=O)[C@@H]2COc3ccc(Cl)cc3C2)c2cnc(-c3cn[nH]c3Cl)nc21 [Compound 1-46] | > 8.00 | > 8.00

Continued, values first:

pIC50 [1] | pIC50 [2] | Structure (SMILES)
< 6.30 | < 6.30 | COc1n[nH]cc1-c1cc2c(cn1)c(C(=O)C1COc3ccc(Cl)cc3C1)cn2CCO (centres unmarked) [Compound 1-1]
> 8.00 | 7.30 to 7.96 | CC(O)Cn1cc(C(=O)C2COc3ccc(Cl)cc3C2)c2cnc(-c3c[nH]nc3Cl)cc21 (centres unmarked) [Compound 1-6]
> 8.00 | 7.30 to 7.96 | C[C@H](O)Cn1cc(C(=O)[C@@H]2COc3ccc(Cl)cc3C2)c2cnc(-c3cn[nH]c3Cl)cc21 [Compound 1-9]
7.30 to 7.96 | 7.30 to 7.96 | C[C@H](O)Cn1cc(C(=O)[C@@H]2COc3ccc(Cl)cc3C2)c2cnc(-c3cn[nH]c3Cl)cc21 [Compound 1-11]
> 8.00 | 7.30 to 7.96 | C[C@H](O)Cn1cc(C(=O)[C@@H]2COc3ccc(Cl)cc3C2)c2cnc(-c3cn[nH]c3Cl)cc21 [Compound 1-12]
> 8.00 | > 8.00 | CC(O)Cn1cc(C(=O)C2COc3ccc(F)cc3C2)c2cnc(-c3c[nH]nc3Cl)cc21 (centres unmarked) [Compound 1-14]
6.30 to 7.29 | < 6.30 | CC(C)(O)Cn1cc(C(=O)[C@H]2COc3ccc(Cl)cc3C2)c2cnc(-c3c[nH]nc3Cl)cc21 [Compound 1-18]
> 8.00 | > 8.00 | CC(C)(O)Cn1cc(C(=O)[C@@H]2COc3ccc(Cl)cc3C2)c2cnc(-c3c[nH]nc3Cl)cc21 [Compound 1-19]
> 8.00 | > 8.00 | C[C@@H](O)Cn1cc(C(=O)C2COc3ccc(F)cc3C2)c2cnc(-c3c[nH]nc3Cl)cc21 (some centres unmarked) [Compound 1-21]
> 8.00 | > 8.00 | COc1ccc2c(c1)CC(C(=O)c1cn(CC(C)(C)O)c3cc(-c4cn[nH]c4F)ncc13)CO2 (centres unmarked) [Compound 1-28]
> 8.00 | 7.30 to 7.96 | C[C@H](O)Cn1cc(C(=O)[C@@H]2COc3ccc(Cl)cc3C2)c2cnc(-c3cn[nH]c3F)cc21 [Compound 1-30]
> 8.00 | 7.30 to 7.96 | CC(C)(O)Cn1cc(C(=O)[C@@H]2COc3ccc(Cl)cc3C2)c2cnc(-c3c[nH]nc3Cl)cc21 [Compound 1-32]
> 8.00 | 7.30 to 7.96 | COc1[nH]ncc1-c1cc2c(cn1)c(C(=O)[C@@H]1COc3ccc(Cl)cc3C1)cn2C[C@H](C)O [Compound 1-33]
7.30 to 7.96 | 6.30 to 7.29 | O=C(c1cn(CC2CC(O)C2)c2cc(-c3cn[nH]c3F)ncc12)C1COc2ccc(Cl)cc2C1 (centres unmarked) [Compound 1-37]
> 8.00 | 7.30 to 7.96 | CC(O)Cn1cc(C(=O)[C@@H]2COc3ccc(Cl)cc3C2)c2ccc(-c3c[nH]nc3F)cc21 (some centres unmarked) [Compound 1-41]
> 8.00 | 7.30 to 7.96 | C[C@@H](O)Cn1cc(C(=O)C2COc3ccc(Cl)cc3C2)c2cnc(-c3cn[nH]c3F)nc21 (some centres unmarked) [Compound 1-47]
